Molecular target: T1, Hsp90αN (N-terminal domain of human Hsp90α) (Homo sapiens, UniProt P07900)
T1 construct: gene HSP90AA1; N-terminal domain, amino acids 3–241, N-terminal His6 tag
Assay: ITC; weak ligand displaced by radicicol (association constant Kb given)
Assay type: binding

Kd: 50 µM
Structure (SMILES): COCCOC(=O)c1ccc(O)cc1O [compound 1]

Reference: paper PMC2705510, “Measurement of Nanomolar Dissociation Constants by Titration Calorimetry and Thermal Shift Assay – Radicicol Binding to Hsp90 and Ethoxzolamide Binding to CAII” (2009)
